Measurements taken from patent US12545900B2, “CGAS/DNCV-like nucleotidyltransferases and uses thereof” (Dana-Farber Cancer Institute, Inc., priority 2018, dated 2026).
Entries after “also recorded” stand apart in the source; their conditions may differ.

Columns and labels:
[1] = molecular target: T1, Mus musculus STING (Mus musculus, UniProt Q3TBT3); experiment: Gel shift assay, radiolabeled nucleotide binding to STING (native PAGE); conditions: radiolabeled nucleotide, 0, 4, 20, 100 μM protein
T1 construct: 6xHis-SUMO2 (N, cleaved yes); made in house; host or cells: E. coli BL21 CodonPlus (DE3)-RIL
T1 sequence (Q3TBT3 138-378 limits assumed): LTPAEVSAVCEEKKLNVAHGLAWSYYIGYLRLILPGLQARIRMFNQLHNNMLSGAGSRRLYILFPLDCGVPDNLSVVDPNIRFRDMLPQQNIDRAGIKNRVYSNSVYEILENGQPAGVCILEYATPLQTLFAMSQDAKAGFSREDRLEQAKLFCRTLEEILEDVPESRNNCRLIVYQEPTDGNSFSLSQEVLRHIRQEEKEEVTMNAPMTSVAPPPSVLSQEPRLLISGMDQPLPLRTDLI
Method: (§1) Briefly, recombinant Mus musculus STING or RECON, at 4, 20, or 100 μM was incubated with radiolabeled nucleotide (≤1 μM final concentration) in gel shift buffer for final conditions of 50 mM Tris pH 7.5, 60 mM KCl, 5 mM Mg (OAc) 2, and 1 mM DTT. Experiments were prepared by combining 1 μL of [α-^32P] labeled nucleotide, 2 uL 5x gel shift buffer, 5 μL of nuclease free water, and started by addition of 2 μL of recombinant protein in storage buffer.
(§2) After 30 min of equilibration, bound and free nucleotide were separated by 6% native PAGE in 0.5x TBE buffer. Gels were dried, and exposed to phosphorscreen prior to detection by Typhoon Trio Variable Mode Imager system (GE Healthcare). Gel shifts were quantified with ImageQuant® 5.2 and the % bound nucleotide was calculated as a proportion of total bound and free nucleotide for each lane, after subtraction of background signal. Gel shift data is representative of ≥2 independent experiments.

[2] = molecular target: T2, RECON (Mus musculus, UniProt Q8VC28); experiment: Gel shift assay, radiolabeled nucleotide binding to RECON (native PAGE); conditions: radiolabeled nucleotide, 0, 4, 20, 100 μM protein
T2 construct: 6xHis-SUMO2 (N, cleaved yes); made in house; host or cells: E. coli BL21 CodonPlus (DE3)-RIL
T2 sequence (Q8VC28 1-323): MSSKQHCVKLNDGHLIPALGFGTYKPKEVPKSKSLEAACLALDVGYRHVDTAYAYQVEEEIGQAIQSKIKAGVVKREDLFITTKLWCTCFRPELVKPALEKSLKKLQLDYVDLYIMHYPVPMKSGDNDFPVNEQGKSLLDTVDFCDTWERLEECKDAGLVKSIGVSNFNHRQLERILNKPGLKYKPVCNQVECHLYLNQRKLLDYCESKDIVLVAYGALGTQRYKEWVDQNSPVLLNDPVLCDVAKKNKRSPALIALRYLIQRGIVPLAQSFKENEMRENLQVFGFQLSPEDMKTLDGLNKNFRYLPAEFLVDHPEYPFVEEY
Method: as §1, §2

[3] = molecular target: T2, RECON; experiment: RECON enzyme assay (oxidation of NADPH cosubstrate); type: biochemical; conditions: nucleotide 50-0.05 μM
Method: Activity assays were performed as previously described (McFarland et al. (2017) Immunity 46:433-445). Briefly, a 2-fold dilution series of nucleotide from 50-0.05 μM was incubated in 1×PBS with 200 μM NADPH (cosubstrate) and 25 μM 9,10-Phenanthrenequinone (substrate). The reactions were started with the addition of RECON to a final concentration of 0.5 μM and absorbance at 340 nm was monitored at 20 s intervals for 20 min. Slope of each reaction in the linear range (20-250 s) was used to calculate activity (Linear regression/straight Line analysis, Prism 7.0c). Values were normalized to reactions with zero nucleotide added, which defined 100% activity.

[4] = molecular target: T3, CapE (Escherichia coli, UniProt Q6XGD4); experiment: Phospholipase assay (EnzChek Phospholipase A1), CapE; type: biochemical, E. coli; conditions: 0.1, 1, and 10-fold molar ratios of nucleotide to phospholipase
T3 construct: made in house; host or cells: E. coli BL21 CodonPlus (DE3)-RIL
Method: Patatin-like lipases were assayed as previously described (Gaspar & Machner (2014) Proc. Natl. Acad. Sci. U.S.A. 111:4560-4565). Briefly, CapV and CapE were produced recombinantly and catalytic activity was measured using the EnzChek® Phospholipase A1 Assay Kit (Invitrogen) according to the manufacturer's instructions. […] Assays were monitored fluorometrically Ex=460 nm/Em=515 nm, for 60 min at ˜90 s intervals at room temperature using a Biotek Synergy plate reader. Slope of each reaction in the linear range was used to calculate activity (Linear regression/straight line analysis, Prism 7.0c). A PLA1 standard curve from 20-0.02 U was used to interpolate phospholipase activity. Emission was monitored at a gain of 100 and/or 50 in order to extend the linear range of the assay.

[5] = tested on: interferon-β reporter in HEK293T cells expressing Mus musculus STING; experiment: Cellular assay for interferon-β induction (in-cell STING reporter assay); conditions: HEK293T cells transfected with plasmid overexpressing the synthesizing enzyme

T3 sequence (Q6XGD4 whole entry): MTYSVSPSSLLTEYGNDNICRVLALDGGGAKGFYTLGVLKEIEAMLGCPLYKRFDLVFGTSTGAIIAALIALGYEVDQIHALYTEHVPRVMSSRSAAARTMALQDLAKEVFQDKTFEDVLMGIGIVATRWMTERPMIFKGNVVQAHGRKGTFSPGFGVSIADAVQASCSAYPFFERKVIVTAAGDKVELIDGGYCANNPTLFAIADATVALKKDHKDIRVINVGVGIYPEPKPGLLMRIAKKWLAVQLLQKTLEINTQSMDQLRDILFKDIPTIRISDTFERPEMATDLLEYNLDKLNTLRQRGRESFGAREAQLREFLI

Compound | recognition/binding of nucleotide by STING [1] | recognition/binding of nucleotide by RECON [2] | inhibition of RECON enzymatic activity [3] | activation of CapE phospholipase activity [4] | activation of STING-dependent type I interferon (IFN-β reporter) [5]
Nc1nc2c(ncn2[C@@H]2O[C@@H]3COP(=O)(O)O[C@H]4[C@@H](O)[C@H](n5cnc6c(N)ncnc65)O[C@@H]4COP(=O)(O)O[C@H]4[C@@H](O)[C@H](n5cnc6c(N)ncnc65)O[C@@H]4COP(=O)(O)O[C@H]3[C@H]2O)c(=O)[nH]1 [cAAG, 3′3′3′ tricyclic adenosine monophosphate-adenosine monophosphate-guanosine monophosphate] | escaped STING recognition | detected by RECON | inhibition of RECON enzymatic activity |  | 
Nc1ncnc2c1ncn2C1OC2COP(=O)(O)OC3C(COP(=O)(O)OC2C1O)OC(n1ccc(=O)[nH]c1=O)C3O (stereo not shown) [cUMP-AMP, 3′3′ cyclic uridine monophosphate-adenosine monophosphate] |  | bound to cUMP-AMP; also recorded: detected by RECON | inhibited RECON function, albeit with a reduced potency compared to the previously reported inhibition by c-di-AMP and 3′3′ cGAMP | CapE as a direct cUMP-AMP receptor | failed to activate STING-dependent type I interferon in cells
